# Tests used:
# [1] = Stability constants of Mn(II) complexes by pH-potentiometry, pMn and species distribution; assay type: physicochemical; details: species distribution, [Mn(II)] = [L] = 1.5 mM
# Experimental: Metal stock solutions were prepared from the highest analytical grade chemicals, and their concentration was determined by complexometric titration with standardized Na2H2EDTA, using xylenol orange indicator in the presence of urotropine buffer (ZnCl2 and MnCl2); Eriochrome black T indicator in the presence of ammonium acetate buffer (CaCl2) or murexide indicator in ammonium solution (CuCl2). The concentration of the ligand stock solutions was determined by pH-potentiometric titrations (the difference between two consecutive inflection points of the ligand titration curve corresponds to two (L2) or one (L3) ligand equivalents). To determine the protonation constants of the ligand and stability constants of the metal complexes with selected divalent metal ions, pH-potentiometric titrations were carried out with 0.1 M NaOH at 2 mM ligand concentration, in the absence (for ligand protonation constants) or in the presence of one equivalent of metal ion (for stability constants). During the titration, the waiting time was 2 min between successive points (V0 = 5 mL). The temperature (25.0 ± 0.1 °C) was controlled by a circulating water bath. The ionic strength was set to I = 0.15 M NaCl. All titrations were performed under a nitrogen atmosphere to avoid the effect of CO2. Titrations were carried out in the pH range from 1.8 (L3) or 2.0 (L2) (after the addition of 1 M HCl solution to the starting ligand solution in the titration cell) to pH 11 (or until precipitation of the metal hydroxide). All pH-potentiometric titrations were performed using a 785 DMP Titrino titration workstation with a combined electrode (Metrohm). The p[H] (p[H] = −log[H+], concentration in molarity) was measured in each titration with a combined pH glass electrode (Metrohm) filled with 3 M KCl. The electrode was calibrated in hydrogen ion concentration by titration of HCl with KOH in 0.1 M electrolyte solution.[37] A plot of potential versus p[H] allows determination of the electrode standard potential (E°) and the slope factor (f).
# The protonation constants of the ligand (log Ki^H) are defined as follows [drawing 1] where i = 1, 2, ··· and [Hi–1L] and [H^+] are the equilibrium concentrations of the ligand (i = 1), its protonated forms (i = 2, ···), and the hydrogen ion. The stability (KML) and the protonation (KMHiL) constants for the metal complexes are defined as follows [drawing 2] [drawing 3] For the calculations of the equilibrium constants, the HYPERQUAD program was used.[38] The number of fitted data pairs was between 190 and 240. The ionic product of water at 25 °C and 0.1 M ionic strength is pKw = 13.77.[39] Fixed values were used for pKw, ligand acidity constants, and total concentrations of metal, ligand, and acid. All values and errors (one standard deviation) reported are at least the average of two independent experiments.
# To obtain further information about the impact of a given pendant arm, it is interesting to calculate pMn values (pMn = −log[Mn(II)]free at pH 7.4, cMn = clig= 10^–5 M) which provide a more direct comparison of MnL stabilities, independently of differences in protonation constants (Table 4). […] Nevertheless, the too large, 15-membered macrocyclic cavity combined with a lower number of pendant arms provide ca. 2 orders of magnitude lower stability for Mn(II) complexation as compared to the 12-membered pyclen derivatives (Table 4).
# [2] = Simultaneous analysis of 17O NMR and 1H NMRD data (Solomon-Bloembergen-Morgan); assay type: physicochemical
# Experimental: ^1H NMRD profiles on aqueous solutions of MnL2 (cMn2+ = 0.98 mM; pH = 7.22) and MnL3 (cMn2+ = 0.96 mM; pH = 7.20) were recorded at 25 and 37 °C on a SMARTracer Fast Field Cycling NMR relaxometer (Stelar; 0.00024–0.24 T, 0.01–10 MHz ^1H Larmor frequency) and a WP80 NMR electromagnet adapted to variable-field measurements (Bruker; 0.47–1.88 T, 20–80 MHz ^1H Larmor frequency). The temperature was maintained by a gas flow and monitored by a VTC91 temperature control unit based on previous calibration with a Pt resistance temperature probe.
# Variable-temperature ^17O NMR measurements of aqueous solutions of MnL2 (cMnL = 3.70 mmol·kg^–1, pH = 7.03) and MnL3 (cMnL = 3.72 mmol·kg^–1, pH = 7.2) were performed on a Bruker Avance III 400 MHz spectrometer (9.4 T, 54.2 MHz) in the temperature range 5–75 °C. The temperature was calculated after calibration with ethylene glycol and […]. Acidified water (HClO4, pH = 3.3) was used as a diamagnetic reference. The ^17O transverse relaxation times (T2) were obtained by using the CPMG spin–echo technique. To eliminate susceptibility contributions to the chemical shift, the sample was in a glass sphere placed in a 10 mm NMR tube. To improve the sensitivity, ^17O-enriched water (11.10% H2^17O, Cortecnet) was added to the solution to yield approximately 1% ^17O enrichment.
# The ^17O NMR and NMRD data have been analyzed according to the Solomon–Bloembergen–Morgan theory of paramagnetic relaxation.[3] The least-squares fit was performed using Visualizeur/Optimiseur running on a MATLAB 8.3.0 (R2014a) platform.
# ^1H NMRD profiles were recorded at 25 and 37 °C in the magnetic field range 0.01–80 MHz (Figure 6, bottom). The reduced transverse ^17O relaxation rates were simultaneously fitted with ^1H NMRD data according to the Solomon–Bloembergen–Morgan theory (equations are given in SI). The fitted parameters are summarized in Table 6 and compared to those for seven-coordinate Mn(II) complexes of L1 and 15-pyN3O2 ligands, as well as of [Mn(H2O)6]^2+.
# The shape of the ^1H NMRD curves reflects typical low-molecular-weight complexes. The profiles display one dispersion between 1 and 10 MHz as has been previously described for other complexes except [Mn(H2O)6]^2+.[49],[50] The hydration number of MnL2 and MnL3 was assumed in both cases to be q = 1 for a total coordination number of CN = 7, based on the X-ray crystal structure. In aqueous solution, the chloride or the acetonitrile that coordinates to Mn(II) in the solid state will be replaced by one water molecule to complete the coordination sphere of Mn(II). As it was described by Gale et al.,[51] the ^17O T2 values can also give an estimate of hydration number, provided the 1/T2r vs temperature curve has a maximum. This approach is not applicable for MnL2 and MnL3 since both systems are in the slow exchange regime in the entire temperature range studied. The lack of a fast exchange regime prevents the fit of the scalar coupling constant, A0/ℏ, as well which was therefore fixed to 38.6 MHz.[28]
Structure (SMILES),pH above which full complex formation is achieved [1],ErH (activation energy for the rotational motion) [2] [kJ mol^–1],kex^298 (water exchange rate constant) [2],kex^298 (water exchange rate) [2],ΔH^‡ (activation enthalpy for the water exchange) [2] [kJ mol^–1],ΔS^‡ (activation entropy for the water exchange) [2],Δ^2 (trace of the square of the transient ZFS tensor) [2],τrH^298 (rotational correlation time) [2] [ps],τv^298 (correlation time for modulation of ZFS) [2] [ps]
O.[Mn+2].c1ccc(CN2CCOCCOCCNCc3cccc(n3)C2)nc1 [MnL2],> 6,15.0 ± 0.5,0.46 × 10^7 s^–1,0.46 ± 0.02 10^7 s^–1,28.7 ± 1.36,–21 ± 5 J mol^–1K^–1,164 ± 10 10^18 s^–2,35 ± 4,8 ± 1
O.[Mn+2].c1cc2nc(c1)CN(Cc1nc3ccccc3[nH]1)CCOCCOCCNC2 [MnL3],> 6,15.0 ± 0.5,0.23 × 10^7 s^–1,0.23 ± 0.02 10^7 s^–1,28.5 ± 2.5,–27 ± 7 J mol^–1K^–1,100 ± 10 10^18 s^–2,45 ± 2,13 ± 3

# Reference: PMC12042267, “Expanding the Family of Monosubstituted 15-Membered Pyridine-Based Macrocyclic Ligands for Mn(II) Complexation in the Context of MRI” (Inorganic Chemistry, 2025)
